ChEMBL document CHEMBL5465560, “Selectivity Literature for EUbOPEN Chemogenomic Library” (2024)

Legend:
[1] = target: Serine/threonine-protein kinase PRP4 homolog (Homo sapiens) (UniProt Q13523); assay: Selectivity interaction (KinomeScan (DiscoverX)) EUB0000666a PRPF4B; conditions: at 10 µM
[2] = target: Bone morphogenetic protein receptor type-1A (Homo sapiens, UniProt P36894); conditions: at 10 µM
[3] = target: T1, Serine/threonine-protein kinase RIO1 (Homo sapiens) (UniProt Q9BRS2); conditions: at 10 µM
T1 sequence (whole entry): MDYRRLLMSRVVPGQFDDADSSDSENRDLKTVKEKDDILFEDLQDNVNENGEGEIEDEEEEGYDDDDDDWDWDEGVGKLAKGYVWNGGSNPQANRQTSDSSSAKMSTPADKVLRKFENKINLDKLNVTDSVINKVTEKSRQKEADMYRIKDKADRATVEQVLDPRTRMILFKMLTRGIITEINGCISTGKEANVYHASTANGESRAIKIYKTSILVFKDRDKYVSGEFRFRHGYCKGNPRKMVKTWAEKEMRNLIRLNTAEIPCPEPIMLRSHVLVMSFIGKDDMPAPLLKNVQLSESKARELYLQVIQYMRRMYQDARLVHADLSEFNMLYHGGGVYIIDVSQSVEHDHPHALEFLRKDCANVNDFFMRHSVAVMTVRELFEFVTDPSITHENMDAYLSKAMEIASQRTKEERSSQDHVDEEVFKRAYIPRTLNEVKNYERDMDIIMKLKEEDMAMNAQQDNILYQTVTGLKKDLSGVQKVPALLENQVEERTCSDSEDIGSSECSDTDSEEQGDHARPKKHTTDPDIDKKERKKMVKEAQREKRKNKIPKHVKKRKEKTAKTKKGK

[4] = target: Cyclin-dependent kinase 17 (Homo sapiens) (UniProt Q00537); assay: Selectivity interaction (KinomeScan (DiscoverX)) EUB0001049a CDK17; conditions: at 1 µM
Chain of Cyclin-dependent kinase 17 (Homo sapiens) (Q00537 whole entry, looked up): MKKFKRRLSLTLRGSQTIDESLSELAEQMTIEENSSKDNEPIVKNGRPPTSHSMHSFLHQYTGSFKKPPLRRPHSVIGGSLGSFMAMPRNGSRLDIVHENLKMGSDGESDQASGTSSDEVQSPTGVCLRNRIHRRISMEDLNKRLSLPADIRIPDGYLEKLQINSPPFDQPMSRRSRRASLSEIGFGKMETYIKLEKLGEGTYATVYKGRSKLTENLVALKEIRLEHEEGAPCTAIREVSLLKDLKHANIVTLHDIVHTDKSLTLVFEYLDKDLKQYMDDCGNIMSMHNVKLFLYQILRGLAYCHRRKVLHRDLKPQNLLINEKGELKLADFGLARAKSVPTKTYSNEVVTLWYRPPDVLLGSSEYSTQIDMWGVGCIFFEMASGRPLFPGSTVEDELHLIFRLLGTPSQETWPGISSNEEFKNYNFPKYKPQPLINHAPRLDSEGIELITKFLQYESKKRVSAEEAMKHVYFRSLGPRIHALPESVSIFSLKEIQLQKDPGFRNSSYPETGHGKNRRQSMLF

[5] = target: Casein kinase II subunit alpha' (Homo sapiens) (UniProt P19784); assay: Selectivity interaction (ProQinase) EUB0000171b CSNK2A2
Chain of Casein kinase II subunit alpha' (Homo sapiens) (P19784 whole entry, looked up): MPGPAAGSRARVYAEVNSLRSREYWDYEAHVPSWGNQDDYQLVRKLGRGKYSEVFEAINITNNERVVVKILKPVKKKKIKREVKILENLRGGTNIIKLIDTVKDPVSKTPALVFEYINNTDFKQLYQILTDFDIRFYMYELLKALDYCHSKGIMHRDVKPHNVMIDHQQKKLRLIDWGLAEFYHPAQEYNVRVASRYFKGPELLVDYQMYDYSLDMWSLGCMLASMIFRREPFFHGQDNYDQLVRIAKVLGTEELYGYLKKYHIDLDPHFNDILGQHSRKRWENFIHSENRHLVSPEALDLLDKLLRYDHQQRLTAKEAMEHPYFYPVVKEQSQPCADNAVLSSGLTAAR

[6] = target: Mitogen-activated protein kinase kinase kinase kinase 4 (Homo sapiens, UniProt O95819); assay: Selectivity interaction (Enzymatic assay) EUB0001199aCl MAP4K4
Chain of Mitogen-activated protein kinase kinase kinase kinase 4 (O95819 whole entry): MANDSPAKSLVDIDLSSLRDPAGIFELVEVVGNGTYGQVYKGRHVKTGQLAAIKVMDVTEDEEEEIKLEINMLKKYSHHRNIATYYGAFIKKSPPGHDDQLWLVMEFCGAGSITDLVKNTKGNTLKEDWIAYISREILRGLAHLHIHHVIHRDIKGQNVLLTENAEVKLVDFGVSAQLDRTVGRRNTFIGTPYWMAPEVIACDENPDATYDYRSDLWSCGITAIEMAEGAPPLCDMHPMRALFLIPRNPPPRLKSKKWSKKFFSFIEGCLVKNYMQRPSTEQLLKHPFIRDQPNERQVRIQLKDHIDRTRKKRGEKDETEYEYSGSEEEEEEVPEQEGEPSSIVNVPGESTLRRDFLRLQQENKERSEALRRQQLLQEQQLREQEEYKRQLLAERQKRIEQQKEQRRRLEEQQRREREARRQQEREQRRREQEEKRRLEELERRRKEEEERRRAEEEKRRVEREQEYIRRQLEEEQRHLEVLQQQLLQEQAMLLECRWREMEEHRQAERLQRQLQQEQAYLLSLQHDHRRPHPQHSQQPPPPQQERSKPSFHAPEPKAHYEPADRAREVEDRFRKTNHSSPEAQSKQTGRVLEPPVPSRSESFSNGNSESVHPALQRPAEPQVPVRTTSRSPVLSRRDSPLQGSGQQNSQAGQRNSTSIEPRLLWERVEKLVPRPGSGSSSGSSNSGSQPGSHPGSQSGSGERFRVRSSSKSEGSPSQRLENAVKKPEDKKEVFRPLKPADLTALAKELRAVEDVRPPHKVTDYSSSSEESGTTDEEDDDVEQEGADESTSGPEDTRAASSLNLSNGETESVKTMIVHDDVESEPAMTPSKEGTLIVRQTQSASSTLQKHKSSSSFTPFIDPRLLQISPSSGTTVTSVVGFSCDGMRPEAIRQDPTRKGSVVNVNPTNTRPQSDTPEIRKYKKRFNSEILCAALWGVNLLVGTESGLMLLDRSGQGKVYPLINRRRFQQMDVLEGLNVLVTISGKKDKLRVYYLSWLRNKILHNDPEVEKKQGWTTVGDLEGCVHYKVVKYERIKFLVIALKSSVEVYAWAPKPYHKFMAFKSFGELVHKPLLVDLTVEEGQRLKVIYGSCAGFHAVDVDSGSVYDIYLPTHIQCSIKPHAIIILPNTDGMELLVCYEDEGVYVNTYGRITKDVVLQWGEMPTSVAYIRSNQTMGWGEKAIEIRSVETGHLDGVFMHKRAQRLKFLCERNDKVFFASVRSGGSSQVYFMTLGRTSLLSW

[7] = target: T2, Mitogen-activated protein kinase kinase kinase kinase 2 (Homo sapiens) (UniProt Q12851); assay: Selectivity interaction (SelectScreen profiling (Invitrogen)) EUB0000607a MAP4K2; conditions: at 2 µM
T2 sequence (whole entry): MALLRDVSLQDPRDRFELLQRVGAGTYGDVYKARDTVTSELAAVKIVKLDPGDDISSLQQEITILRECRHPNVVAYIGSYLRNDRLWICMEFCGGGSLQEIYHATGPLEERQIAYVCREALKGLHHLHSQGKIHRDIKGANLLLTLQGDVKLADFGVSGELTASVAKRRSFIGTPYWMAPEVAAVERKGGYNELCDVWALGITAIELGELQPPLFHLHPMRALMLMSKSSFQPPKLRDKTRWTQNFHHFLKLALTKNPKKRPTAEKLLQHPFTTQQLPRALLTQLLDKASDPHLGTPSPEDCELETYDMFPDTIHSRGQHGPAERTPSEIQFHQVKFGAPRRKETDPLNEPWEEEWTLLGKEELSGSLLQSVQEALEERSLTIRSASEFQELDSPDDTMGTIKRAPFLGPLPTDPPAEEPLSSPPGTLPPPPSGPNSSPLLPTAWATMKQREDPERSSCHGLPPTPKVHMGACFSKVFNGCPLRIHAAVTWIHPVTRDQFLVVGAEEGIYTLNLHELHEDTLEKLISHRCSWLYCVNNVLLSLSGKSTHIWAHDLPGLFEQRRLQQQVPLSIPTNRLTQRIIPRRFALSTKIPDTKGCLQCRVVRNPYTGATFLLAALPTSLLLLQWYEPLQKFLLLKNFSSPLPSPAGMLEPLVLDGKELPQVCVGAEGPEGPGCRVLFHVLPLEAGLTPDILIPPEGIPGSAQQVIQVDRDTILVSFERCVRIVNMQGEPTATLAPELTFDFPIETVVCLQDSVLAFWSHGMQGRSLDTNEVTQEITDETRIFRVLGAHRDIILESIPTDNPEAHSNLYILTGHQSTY

[8] = target: T3, Mitogen-activated protein kinase kinase kinase 3 (Homo sapiens) (UniProt Q99759); assay: Selectivity interaction (KinomeScan (DiscoverX)) EUB0000655a MAP3K3; conditions: at 10 µM
T3 sequence (whole entry): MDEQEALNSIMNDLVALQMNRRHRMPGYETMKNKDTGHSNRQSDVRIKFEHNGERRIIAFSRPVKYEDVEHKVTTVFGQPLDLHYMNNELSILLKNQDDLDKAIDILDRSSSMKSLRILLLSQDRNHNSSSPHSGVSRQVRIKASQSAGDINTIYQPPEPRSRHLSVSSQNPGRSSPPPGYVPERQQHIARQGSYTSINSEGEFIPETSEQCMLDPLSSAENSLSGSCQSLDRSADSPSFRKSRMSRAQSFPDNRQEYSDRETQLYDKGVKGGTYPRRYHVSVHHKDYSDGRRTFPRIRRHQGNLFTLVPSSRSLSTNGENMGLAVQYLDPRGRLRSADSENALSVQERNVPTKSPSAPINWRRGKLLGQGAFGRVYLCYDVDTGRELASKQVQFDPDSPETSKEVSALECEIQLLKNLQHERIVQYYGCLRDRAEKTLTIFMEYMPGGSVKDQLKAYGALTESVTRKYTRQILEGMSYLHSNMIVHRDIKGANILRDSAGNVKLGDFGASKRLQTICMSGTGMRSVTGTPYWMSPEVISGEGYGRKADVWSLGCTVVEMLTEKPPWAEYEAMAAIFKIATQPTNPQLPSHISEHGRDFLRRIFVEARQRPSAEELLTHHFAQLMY

Chain of Serine/threonine-protein kinase PRP4 homolog (Homo sapiens) (Q13523 whole entry): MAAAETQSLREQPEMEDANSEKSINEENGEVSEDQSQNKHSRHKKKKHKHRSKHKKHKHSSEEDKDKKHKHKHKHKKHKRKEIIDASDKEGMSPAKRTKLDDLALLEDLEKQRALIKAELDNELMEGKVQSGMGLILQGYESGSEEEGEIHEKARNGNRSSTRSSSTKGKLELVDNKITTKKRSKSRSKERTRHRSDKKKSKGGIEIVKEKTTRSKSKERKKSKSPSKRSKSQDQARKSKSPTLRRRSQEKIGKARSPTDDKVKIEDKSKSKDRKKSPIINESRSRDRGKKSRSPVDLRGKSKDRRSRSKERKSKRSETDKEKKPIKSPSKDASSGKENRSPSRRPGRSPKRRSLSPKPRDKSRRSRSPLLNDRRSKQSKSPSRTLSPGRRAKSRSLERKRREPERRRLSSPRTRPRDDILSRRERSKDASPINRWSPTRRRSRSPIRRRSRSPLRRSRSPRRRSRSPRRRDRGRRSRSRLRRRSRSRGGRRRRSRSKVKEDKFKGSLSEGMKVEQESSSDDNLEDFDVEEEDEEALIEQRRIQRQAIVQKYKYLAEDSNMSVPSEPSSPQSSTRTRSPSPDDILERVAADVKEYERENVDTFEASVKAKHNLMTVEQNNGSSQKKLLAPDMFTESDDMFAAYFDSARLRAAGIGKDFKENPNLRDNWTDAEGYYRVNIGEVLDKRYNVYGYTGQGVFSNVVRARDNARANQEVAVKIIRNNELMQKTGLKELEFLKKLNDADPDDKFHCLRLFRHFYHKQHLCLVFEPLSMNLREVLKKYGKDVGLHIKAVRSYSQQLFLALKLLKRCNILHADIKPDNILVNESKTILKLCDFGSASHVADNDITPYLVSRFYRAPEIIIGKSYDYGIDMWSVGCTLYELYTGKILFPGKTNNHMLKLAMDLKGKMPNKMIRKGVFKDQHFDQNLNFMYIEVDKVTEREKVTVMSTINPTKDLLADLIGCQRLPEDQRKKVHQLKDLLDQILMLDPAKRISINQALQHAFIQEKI
Chain of Bone morphogenetic protein receptor type-1A (P36894 whole entry): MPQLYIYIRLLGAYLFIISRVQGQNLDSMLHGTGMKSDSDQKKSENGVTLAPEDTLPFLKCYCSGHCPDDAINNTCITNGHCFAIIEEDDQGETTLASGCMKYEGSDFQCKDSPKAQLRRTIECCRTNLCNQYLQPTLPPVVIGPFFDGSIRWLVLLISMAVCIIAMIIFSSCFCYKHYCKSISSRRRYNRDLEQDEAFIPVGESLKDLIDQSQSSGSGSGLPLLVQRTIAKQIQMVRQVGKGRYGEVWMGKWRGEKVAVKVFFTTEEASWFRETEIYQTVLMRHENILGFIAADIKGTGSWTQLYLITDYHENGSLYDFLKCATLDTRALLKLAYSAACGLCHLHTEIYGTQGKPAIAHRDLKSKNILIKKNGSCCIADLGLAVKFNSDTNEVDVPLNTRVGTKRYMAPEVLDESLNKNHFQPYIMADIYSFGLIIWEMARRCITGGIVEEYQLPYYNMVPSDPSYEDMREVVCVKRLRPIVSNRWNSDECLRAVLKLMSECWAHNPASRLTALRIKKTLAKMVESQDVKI

Structure (SMILES): O=C(NOC[C@H](O)CO)c1ccc(F)c(F)c1Nc1ccc(I)cc1F
- % of control [1]: 77%

Structure (SMILES): Cc1cc([C@@H](C)Nc2ccccc2C(=O)O)c2nc(N3CCOCC3)cc(=O)n2c1 [AZD-6482]
- % of control [2]: 98%
- % of control [3]: 100%

Structure (SMILES): COc1cc(Nc2nc(C)cc(-c3cnn4nc(OC)ccc34)n2)cc(C(F)(F)F)c1
- % of control [4]: 100%

Structure (SMILES): C=CC(=O)Nc1cccc(C(=O)Nc2ccc(Nc3cc(-c4[nH]c(SC)nc4C)ccn3)cc2)c1
- % of control ([5]; at 1 µM): 80%
- % of control ([5]; at 5 µM): 52%

Structure (SMILES): CN1Cc2nccc(-c3cn(C)nc3-c3ccc(F)cc3)c2C1=O
- IC50 [6]: 873 nM

Structure (SMILES): CNC(=O)Nc1ccc(-c2nc(N3CC4CCC(C3)O4)c3cnn(C4CCC5(CC4)OCCO5)c3n2)cc1
- % of inhibition [7]: 3%

Structure (SMILES): CN(C)CCOc1ccc(-c2nc(-c3ccncc3)c(-c3ccc4c(c3)CC/C4=N\O)[nH]2)cc1
- % of control [8]: 76%
